The record followed here is patent publication US20210386841A1, “COMPOSITIONS FOR TRANSFECTING mRNA INTO A CELL AND THEIR APPLICATIONS” (POLYPLUS TRANSFECTION, priority 2018, published 2021).

What all share (assay type): cell-based
Data set [1] concerns Jurkat Clone E6-1 human T lymphoblast cells. The data set is described as follows: eGFP mRNA transfection, Jurkat cells (96-well). The note with it: 150 ng eGFP mRNA, 24 h. How it is done: Jurkat Clone E6-1 (ATCC® TIB-152™) human T lymphoblast cells were grown in RPMI-1640 (LONZA) with 10% of FBS (EUROBIO) and supplemented with 2 mM Glutamine (LONZA), 100 U/mL of penicillin and 100 μg/mL of streptomycin (LONZA) at 37° C. in a 5% CO2 in air atmosphere.
(§1) mRNA eGFP (996 nt, reference L-6101) from TriLink Technologies was used for the in vitro transfection experiments and expressed enhanced green fluorescent protein which is a common reporter gene (eGFP). This mRNA was capped with a Cap 0, polyadenylated and modified with 5-methylcytidine and pseudo-uridine.
(§2) One day before transfection, Caco-2, THP-1 or BJ Cells were seeded at 10 000, 25 000, or 5 000 cells per well (96-well plate format), respectively, in 125 μL of their respective complete medium and incubated at 37° C. in a 5% CO2 in air atmosphere. For Jurkat cells, 25 000 cells were seeded per well prior transfection. On the day of transfection 150 ng of mRNA was added in 11.5 μL of 5% glucose solution, mixed with a vortex and incubated for 5 minutes at rt. Then, 1 μL of 1 mM cationic liposomal formulation was added onto the diluted mRNA, mixed with a vortex and incubated for 15 minutes at rt. The formulated mRNA solution (12.5 μL) was added into the well and the plate was incubated for 24 hours at 37° C. in a 5% CO2 in air atmosphere.
(§3) For the GFP expression analysis, the cell culture medium was removed for the adherent cells and 50 μL of trypsin-EDTA (1×, Lonza) was added and the plate was incubated for 5 minutes at 37° C. 150 μL of complete medium were added to neutralize the trypsin, and the GFP expression was analysed (2000 events) by flow cytometry (Exc 488 nm, Em 520 nm) using a Guava easyCyte 6HT cytometer (Millipore).
(§4) All these new liposomal formulations (Table 1) were assessed to deliver mRNA expressing an enhanced green fluorescent protein (eGFP) as reporter gene in order to determine the gene expression and the transfection efficiency (Table 2). mRNA eGFP capped with a Cap 0 in 5′-end, polyadenylated in 3′-end and modified with 5-methylcytidine and pseudo-uridine was used in the transfection assay. The transfection assay was performed as described in the Experimental section where 150 ng of mRNA eGFP was complexed with 1 μL of 1 mM cationic liposomal formulations in a 5% glucose solution before the addition on the cells. One day post-transfection, the eGFP expression was analyzed by flow cytometry to determine the percentage of transfection. Four different cell lines were used in this assay from easy to transfect cells to hard to transfect cells with plasmid DNA, including human BJ skin fibroblast cells, THP-1 human peripheral blood monocytes, Caco-2 human colon epithelial cells and Jurkat Clone E6-1 human T lymphoblast cells, respectively.

In data set [2] the test system is THP-1 human peripheral blood monocyte cells. The data set is described as follows: eGFP mRNA transfection, THP-1 cells (96-well). The note with it: ratio 1/2, 150 ng eGFP mRNA, 24 h. How it is done:
THP-1 (ATCC® TIB-202™) human peripheral blood monocyte cells were grown in RPMI-1640 with 10% FBS and supplemented with 10 mM HEPES buffer, 1 mM sodium pyruvate, 0.05 mM 2-mercaptoethanol, 2 mM glutamine, 100 U/mL of penicillin and 100 μg/mL of streptomycin at 37° C. in a 5% CO2 in air atmosphere.
as §1, §2, §3, §4

Data set [3] deals with Caco-2 human colon epithelial cells. As to the kind of experiment: eGFP mRNA transfection, Caco-2 cells (96-well). The following applies: ratio 1/2, 150 ng eGFP mRNA, 24 h. As for the experimental part: Caco-2 (ATCC® HTB-37™) human colon epithelial cells were grown in DMEM 4.5 g/L glucose with 20% FBS supplemented with 1% non-essential amino acids, 1 mM sodium pyruvate, 2 mM glutamine and 100 U/mL of penicillin and 100 μg/mL of streptomycin at 37° C. in a 5% CO2 in air atmosphere.
as §1, §2, §3, §4

[4] abbreviates: co-lipid DOPE, ratio compound/co-lipid 1/2, 1 μL of 1 mM formulation, flow cytometry.

With `CCCCCCCCCCCCCCC(CCCCCCCCCCCCCC)CCCCC(CCCCC(CCCCCCCCCCCCCC)CCCCCCCCCCCCCC)[n+]1ccn(C)c1.[Cl-]` [Compound W18.9, 1-methyl-3-(15,25-ditetradecylnonatriacontan-20-yl)-1H-imidazol-3-ium chloride], the “Transfection efficiency (eGFP %) Jurkat” value in data set [1] (setting [4]) was 25-30%. Further, the “Transfection efficiency (eGFP %) THP-1” value in data set [2] (co-lipid DOPE) is listed as 80-85%.
In the case of `CCCCCCCCCCCCCCC(CCCCCCCCCCCCCC)CCCCC(CCC(C)CCCC(C)C)[n+]1ccn(CCCC)c1.[Cl-]` (stereo not drawn) [Compound W22.7, 1-butyl-3-(2,6-dimethyl-14-tetradecyloctacosan-9-yl)-1H-imidazol-3-ium chloride], the “Transfection efficiency (eGFP %) Jurkat” value in data set [1] (setting [4]) is reported as 50-60%; in data set [1] (co-lipid DPyPE, ratio 1/2), 40-55%. The “Transfection efficiency (eGFP %) THP-1” value is recorded as 70-80% in data set [2] (co-lipid DOPE) and 80-85% in data set [2] (co-lipid DPyPE).
Take `CCCCn1cc[n+](C(CCCCC(CCC(C)CCCC(C)C)CCC(C)CCCC(C)C)CCC(C)CCCC(C)C)c1.[Cl-]` (stereo not drawn) [Compound W23.7, 1-butyl-3-(14-(3,7-dimethyloctyl)-2,6,17,21-tetramethyldocosan-9-yl)-1H-imidazol-3-ium chloride]: the “Transfection efficiency (eGFP %) Jurkat” value in data set [1] (co-lipid DPyPE, ratio 1/1.5) was 25-30%.
For `CCCCCCCCCCCCCCCCCCC(CCCCCCCCCCCCCCCCCC)CCCCC(CCCCCC)[n+]1ccn(C)c1.[Cl-]` (stereo not drawn) [Compound W17.7, 1-methyl-3-(12-octadecyltriacontan-7-yl)-1H-imidazol-3-ium chloride], in data set [1] (setting [4]), the “Transfection efficiency (eGFP %) Jurkat” value was 30-35%. Besides, the “Transfection efficiency (eGFP %) THP-1” value in data set [2] (co-lipid DOPE) is reported as 70-75%.
On the same counts, the results for `CCCCCCCCCCCCCCCCCCC(CCCCCCCCCCCCCCCCCC)CCCCC(CC1CCCCC1)[n+]1ccn(C)c1.[Cl-]` (stereo not drawn) [Compound W14.7, 1-methyl-3-(1-cyclohexyl-7-octadecylpentacosan-2-yl)-1H-imidazol-3-ium chloride] are 25-35% and 55-65%.
For `CCCCCCCCCCCCCCCCCCNC(CCCCCCCCCC)CCCC(CCCCCCCCCC)n1cc[n+](C)c1.Cl.[Cl-]` (stereo not drawn) [Compound W19.7, 1-methyl-3-(15-(octadecylammonio)pentacosan-11-yl)-1H-imidazol-3-ium chloride], the “Transfection efficiency (eGFP %) Jurkat” value in data set [1] (setting [4]) is 40-50%. The “Transfection efficiency (eGFP %) THP-1” value in data set [2] (co-lipid DOPE) is listed as 40-50%.
Consider `CCCCCCCCCCCCCCCCCCC(CCCCCCCCCCCCCCCCCC)CCCCC(CCC(C)CCCC(C)C)[n+]1ccn(C)c1.[Cl-]` (stereo not drawn) [Compound W16.7, 1-methyl-3-(2,6-dimethyl-14-octadecyldotriacontan-9-yl)-1H-imidazole-3-ium chloride], for which the “Transfection efficiency (eGFP %) Jurkat” value in data set [1] (setting [4]) is listed as 35-40%. In data set [3] (co-lipid DOPE), the “Transfection efficiency (eGFP %) CaCO2” value is given as 15-20%. Moreover, the “Transfection efficiency (eGFP %) THP-1” value in data set [2] (co-lipid DOPE) was 75-80%.
In the case of `CCCCCCCCCCCCCCCCCCC(CCCCCCCCCCCCCCCCCC)CCCCC(CCC(C)CCCC(C)C)[n+]1ccn(CCCC)c1.[Cl-]` (stereo not drawn) [Compound W21.7, 1-butyl-3-(2,6-dimethyl-14-octadecyldotriacontan-9-yl)-1H-imidazol-3-ium chloride], the “Transfection efficiency (eGFP %) Jurkat” value in data set [1] (setting [4]) is 40-50%; in data set [1] (co-lipid DPyPE, ratio 1/2), 55-65%. Further, the “Transfection efficiency (eGFP %) CaCO2” value was 50-60% in data set [3] (co-lipid DOPE) and 60-70% in data set [3] (co-lipid DPyPE). Besides, the “Transfection efficiency (eGFP %) THP-1” value in data set [2] (co-lipid DOPE) and in data set [2] (co-lipid DPyPE) was 70-80% in each case.
For the compound `CCCCCCCCCCCCCCCCCCC(CCCCCCCCCCCCCCCCCC)CCCCC(Cc1ccccc1)[n+]1ccn(C)c1.[Cl-]` (stereo not drawn) [Compound W15.7, 1-methyl-3-(7-octadecyl-1-phenylpentacosan-2-yl)-1H-imidazol-3-ium chloride], the “Transfection efficiency (eGFP %) Jurkat” value in data set [1] (setting [4]) is 25-30%. Moreover, the “Transfection efficiency (eGFP %) THP-1” value in data set [2] (co-lipid DOPE) is on record as 55-70%.
